Data on 16 compounds can be found in patent publication US20110182850A1, “ORGANIC COMPOUNDS AND THEIR USES” (priority 2009, published 2011).

Broadly, the IC50 is the midpoint of a concentration-inhibition curve.

The target of the first assay is T1, HCV NS3-4A serine protease (full-length NS3-4A protein, genotype 1a, strain HCV-1) (Hepatitis C virus genotype 1a, UniProt P26664).
T1 construct: using the full-length NS3-4A protein (genotype 1a, strain HCV-1)
T1 sequence (P26664 1658-1711): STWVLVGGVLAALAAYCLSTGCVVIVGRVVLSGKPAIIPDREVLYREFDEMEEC
T1 sequence (P26664 1027-1657): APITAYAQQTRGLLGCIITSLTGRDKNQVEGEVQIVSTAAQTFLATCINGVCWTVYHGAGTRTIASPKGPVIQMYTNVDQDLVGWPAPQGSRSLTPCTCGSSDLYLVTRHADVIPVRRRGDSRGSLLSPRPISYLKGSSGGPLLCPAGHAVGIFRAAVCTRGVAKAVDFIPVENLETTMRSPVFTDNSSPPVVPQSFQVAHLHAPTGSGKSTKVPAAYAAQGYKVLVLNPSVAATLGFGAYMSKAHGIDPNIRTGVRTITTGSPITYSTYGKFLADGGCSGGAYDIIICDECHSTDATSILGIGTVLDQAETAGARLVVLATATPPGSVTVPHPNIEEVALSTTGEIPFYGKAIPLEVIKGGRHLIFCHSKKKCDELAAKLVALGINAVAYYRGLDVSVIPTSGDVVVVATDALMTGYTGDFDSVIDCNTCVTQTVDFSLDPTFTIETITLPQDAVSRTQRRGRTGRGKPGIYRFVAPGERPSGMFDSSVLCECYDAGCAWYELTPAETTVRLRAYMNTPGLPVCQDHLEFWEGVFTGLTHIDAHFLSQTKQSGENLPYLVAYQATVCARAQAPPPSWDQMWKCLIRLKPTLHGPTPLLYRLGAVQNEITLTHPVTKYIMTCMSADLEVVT
As to the kind of experiment: HCV NS3-4A protease assay. It is filed as biochemical. The following applies: Protease IC50. As for the experimental part:
The inhibitory activity of certain compounds of Table A against HCV NS3-4A serine protease is determined in a homogenous assay using the full-length NS3-4A protein (genotype 1a, strain HCV-1) and a commercially available internally-quenched fluorogenic peptide substrate as described by Taliani, M., et al. 1996 Anal. Biochem. 240:60-67, which is incorporated by reference in its entirety.
`CCCC(NC(=O)[C@@H]1C[C@@]2(CN1C(=O)C(NC(=O)[C@@H](NC(=O)C(C)(C)N1CCCC1)C1CCCCC1)C(C)(C)C)C(C)(C)C21CCC1)C(=O)NS(=O)(=O)C1CC1` (stereo partly drawn) [Compound 2, (5R,8S)-7-[2-({(2S)-2-cyclohexyl-2-[(2-methyl-2-pyrrolidin-1-ylpropanoyl)amino]acetyl}amino)-3,3-dimethylbutanoyl]-N-{1-[(cyclopropylsulfonyl)carba-moyl]butyl}-10,10-dimethyl-7-azadispiro[3.0.4.1]decane-8-carboxamide] had an IC50 of 2250 nM.

In the case of `CC(C)(C)[C@H](NC(=O)[C@@H](NC(=O)C(C)(C)N1CCCC1)C1CCCCC1)C(=O)N1C[C@]2(C[C@H]1C(=O)NC1(C(=O)NS(=O)(=O)C3CC3)CC1)C(C)(C)C21CCC1` [Compound 3, (5R,8S)-7-[(2S)-2-({(2S)-2-cyclohexyl-2-[(2-methyl-2-pyrrolidin-1-ylpropanoyl)amino]acetyl}amino)-3,3-dimethylbutanoyl]-N-{1-[(cyclopropylsulfonyl)carba-moyl]cyclopropyl}-10,10-dimethyl-7-azadispiro[3.0.4.1]decane-8-carboxamide], 45 nM corresponded to half-maximal inhibition (IC50).

`C=C[C@@H]1C[C@]1(NC(=O)[C@@H]1C[C@@]2(CN1C(=O)[C@@H](NC(=O)[C@@H](NC(=O)[C@@H]1CCCCN1C(C)C)C(C)(C)C)C(C)(C)C)C(C)(C)C21CCC1)C(=O)NS(=O)(=O)c1cccc2cc[nH]c12` [Compound 4, (5R,8S)-N-{(1R,2S)-1-[(1H-indol-7-ylsulfonyl)carbamoyl]-2-vinylcyclopropyl}-7-[(2S)-2-{[(2S)-2-({[(2S)-1-isopropylpiperidin-2-yl]carbonyl}amino)-3,3-dimethylbutanoyl]amino}-3,3-dimethylbutanoyl]-10,10-dimethyl-7-azadispiro[3.0.4.1]decane-8-carboxamide]: the IC50 worked out at 0.8 nM.

On to `C=C[C@@H]1C[C@]1(NC(=O)[C@@H]1C[C@@]2(CN1C(=O)C(NC(=O)[C@@H](NC(=O)OC(C)(C)C)C(C)(C)C)C(C)(C)C)C(C)(C)C21CCC1)C(=O)NS(=O)(=O)c1ccccc1` (stereo partly drawn) [Compound 5, tert-butyl {(1S)-1-[(1-{[(5R,8S)-10,10-dimethyl-8-({(1R,2S)-1-[(phenylsulfonyl)carbamoyl]-2-vinylcyclopropyl}carbamoyl)-7-azadispiro[3.0.4.1]dec-7-yl]carbonyl}-2,2-dimethylpropyl)carbamoyl]-2,2-dimethylpropyl}carbamate], for which the IC50 worked out at 1950 nM.

`C=C[C@@H]1C[C@]1(NC(=O)[C@@H]1C[C@@]2(CN1C(=O)[C@@H](NC(=O)[C@@H](NC(=O)OC(C)(C)C)C(C)(C)C)C(C)(C)C)C(C)(C)C21CCC1)C(=O)NS(=O)(=O)C1CC1` [Compound 6, tert-butyl [(1S)-1-{[(1S)-1-{[(5R,8S)-8-({(1R,2S)-1-[(cyclopropylsulfonyl)carba-moyl]-2-vinylcyclopropyl}carbamoyl)-10,10-dimethyl-7-azadispiro[3.0.4.1]dec-7-yl]carbonyl}-2,2-dimethylpropyl]carbamoyl}-2,2-dimethylpropyl]carbamate] registered an IC50 of 80 nM.

In the case of `C=C[C@@H]1C[C@]1(NC(=O)[C@@H]1C[C@@]2(CN1C(=O)[C@@H](NC(=O)[C@@H](NC(=O)[C@@H]1CCCN(CCF)C1)C(C)(C)C)C(C)(C)C)C(C)(C)C21CCC1)C(=O)NS(=O)(=O)C1CC1` [Compound 8, (5R,8S)-N-{(1R,2S)-1-[(cyclopropylsulfonyl)carba-moyl]-2-vinylcyclopropyl}-7-[(2S)-2-{[(2S)-2-({[(3R)-1-(2-fluoroethyl)piperidin-3-yl]carbonyl}amino)-3,3-dimethylbutanoyl]amino}-3,3-dimethylbutanoyl]-10,10-dimethyl-7-azadispiro[3.0.4.1]decane-8-carboxamide], half-maximal inhibition (IC50) was put at 25 nM.

Take `C=C[C@@H]1C[C@]1(NC(=O)[C@@H]1C[C@@]2(CN1C(=O)[C@@H](NC(=O)[C@@H](NC(=O)[C@@H]1CCCCN1CCF)C(C)(C)C)C(C)(C)C)C(C)(C)C21CCC1)C(=O)NS(=O)(=O)C1CC1` [Compound 9, (5R,8S)-N-{(1R,2S)-1-[(cyclopropylsulfonyl)carba-moyl]-2-vinylcyclopropyl}-7-[(2S)-2-{[(2S)-2-({[(2S)-1-(2-fluoroethyl)piperidin-2-yl]carbonyl}amino)-3,3-dimethylbutanoyl]amino}-3,3-dimethylbutanoyl]-10,10-dimethyl-7-azadispiro[3.0.4.1]decane-8-carboxamide]: the half-inhibitory concentration (IC50) was 8 nM.

As for `C=C[C@@H]1C[C@]1(NC(=O)[C@@H]1C[C@@]2(CN1C(=O)[C@@H](NC(=O)[C@@H](NC(=O)[C@@H]1CCCCN1CCF)C(C)(C)C)C(C)(C)C)C(C)(C)C21CCC1)C(=O)NS(=O)(=O)c1cccc2cc[nH]c12` [Compound 14, (5R,8S)-7-[(2S)-2-{[(2S)-2-({[(2S)-1-(2-fluoroethyl)piperidin-2-yl]carbonyl}amino)-3,3-dimethylbutanoyl]amino}-3,3-dimethylbutanoyl]-N-{(1R,2S)-1-[(1H-indol-7-ylsulfonyl)carbamoyl]-2-vinylcyclopropyl}-10,10-dimethyl-7-azadispiro[3.0.4.1]decane-8-carboxamide], inhibition was half-maximal at 6.5 nM (IC50).

As for `CC(C)N1CCCC[C@H]1C(=O)N[C@H](C(=O)N[C@H](C(=O)N1C[C@]2(CC1C(=O)NC1(C(=O)NS(=O)(=O)C3CC3)CC1(C)C)C(C)(C)C21CCC1)C(C)(C)C)C(C)(C)C` (stereo partly drawn) [Compound 15, (5R)-N-{1-[(cyclopropylsulfonyl)carba-moyl]-2,2-dimethylcyclopropyl}-7-[(2S)-2-{[(2S)-2-({[(2S)-1-isopropylpiperidin-2-yl]carbonyl}amino)-3,3-dimethylbutanoyl]amino}-3,3-dimethylbutanoyl]-10,10-dimethyl-7-azadispiro[3.0.4.1]decane-8-carboxamide], the IC50 is 3700 nM.

The assay is the same for the next values; noted with them: read-out: Protease IC50.
Take `C=C[C@@H]1C[C@]1(NC(=O)[C@@H]1C[C@@]2(CN1C(=O)[C@@H](NC(=O)OC(C)(C)C)C(C)C)C(C)(C)C21CCC1)C(=O)NS(=O)(=O)C1CC1` [Compound 1, tert-butyl [(1S)-1-{[(5R,8S)-8-({(1R,2S)-1-[(cyclopropylsulfonyl)carba-moyl]-2-vinylcyclopropyl}carbamoyl)-10,10-dimethyl-7-azadispiro[3.0.4.1]dec-7-yl]carbonyl}-2-methylpropyl]carbamate]: the IC50 stood at 100 nM.

As to `C=C[C@@H]1C[C@]1(NC(=O)[C@@H]1C[C@@]2(CN1C(=O)[C@@H](NC(=O)CC1CCCCC1)C(C)(C)C)C(C)(C)C21CCC1)C(=O)NS(=O)(=O)C1CC1` [Compound 7, (5R,8S)-7-{(2S)-2-[(cyclohexylacetyl)amino]-3,3-dimethylbutanoyl}-N-{(1R,2S)-1-[(cyclopropylsulfonyl)carba-moyl]-2-vinylcyclopropyl}-10,10-dimethyl-7-azadispiro[3.0.4.1]decane-8-carboxamide], the IC50 turned out to be 100 nM.

On to `C=C[C@@H]1C[C@]1(NC(=O)[C@@H]1C[C@@]2(CN1C(=O)[C@@H](NC(=O)OC1CCCC1)C(C)(C)C)C(C)(C)C21CCC1)C(=O)NS(=O)(=O)C1CC1` [Compound 10, cyclopentyl [(1S)-1-{[(5R,8S)-8-({(1R,2S)-1-[(cyclopropylsulfonyl)carba-moyl]-2-vinylcyclopropyl}carbamoyl)-10,10-dimethyl-7-azadispiro[3.0.4.1]dec-7-yl]carbonyl}-2,2-dimethylpropyl]carbamate], for which the IC50 stood at 25 nM.

Turning to `C=C[C@@H]1C[C@]1(NC(=O)[C@@H]1C[C@@]2(CN1C(=O)[C@@H](NC(=O)c1ccc3cnccc3n1)C(C)(C)C)C(C)(C)C21CCC1)C(=O)NS(=O)(=O)C1CC1` [Compound 11, (5R,8S)-N-{(1R,2S)-1-[(cyclopropylsulfonyl)carba-moyl]-2-vinylcyclopropyl}-7-{(2S)-3,3-dimethyl-2-[(1,6-naphthyridin-2-ylcarbonyl)amino]butanoyl}-10,10-dimethyl-7-azadispiro[3.0.4.1]decane-8-carboxamide], the IC50 stood at 200 nM.

`C=C[C@@H]1C[C@]1(NC(=O)[C@@H]1C[C@@]2(CN1C(=O)[C@@H](NCc1nc3ccccc3n1C)C(C)(C)C)C(C)(C)C21CCC1)C(=O)NS(=O)(=O)C1CC1` [Compound 12, (5R,8S)-N-{(1R,2S)-1-[(cyclopropylsulfonyl)carba-moyl]-2-vinylcyclopropyl}-7-[(2S)-3,3-dimethyl-2-{[(1-methyl-1H-benzimidazol-2-yl)methyl]amino}butanoyl]-10,10-dimethyl-7-azadispiro[3.0.4.1]decane-8-carboxamide]: the IC50 stood at 400 nM.

Consider `C=C[C@@H]1C[C@]1(NC(=O)[C@@H]1C[C@@]2(CN1C(=O)[C@@H](NS(=O)(=O)c1nccn1C)C(C)(C)C)C(C)(C)C21CCC1)C(=O)NS(=O)(=O)C1CC1` [Compound 13, (5R,8S)-N-{(1R,2S)-1-[(cyclopropylsulfonyl)carba-moyl]-2-vinylcyclopropyl}-7-[(2S)-3,3-dimethyl-2-{[(1-methyl-1H-imidazol-2-yl)sulfonyl]amino}butanoyl]-10,10-dimethyl-7-azadispiro[3.0.4.1]decane-8-carboxamide], for which the IC50 is 250 nM.

Regarding `C=C[C@@H]1C[C@]1(NC(=O)[C@@H]1C[C@@]2(CN1C(=O)[C@@H](NC(=O)N[C@H](CN1CCN(C)CC1)C(C)(C)C)C(C)(C)C)C(C)(C)C21CCC1)C(=O)NS(=O)(=O)C1CC1` [Compound 16, (5R,8S)-N-{(1R,2S)-1-[(cyclopropylsulfonyl)carba-moyl]-2-vinylcyclopropyl}-7-{(2S)-2-[({(1S)-2,2-dimethyl-1-[(4-methylpiperazin-1-yl)methyl]propyl}carbamoyl)amino]-3,3-dimethylbutanoyl}-10,10-dimethyl-7-azadispiro[3.0.4.1]decane-8-carboxamide], the IC50 came to 10 nM.
